Measured values as given in patent publication US20050240041A1, “Palm-based hydroxy fatty acid” (priority 2004, published 2005).
“Also recorded” adds a separate entry of the source.

Columns and labels:
[1] = in-vitro dermal (skin) irritection test
Description: (§1) The purified palm DHSA obtained in the laboratory was subjected to in-vitro and in-vivo dermal irritection test which confirmed that the compound is non irritant, and thus suitable as one of the ingredients used in cosmetic products. The details of the current invention is described below.
In the recrystallization technique, the crude DHSA is dissolved in the solvent with a slight heating of the mixture (about 50° C. to 60° C.). The solution is left to cool down gradually to ambient temperature and further cooled at about 10° C. to 15° C. to ensure maximum yield. The precipitate obtained is filtered and dried. The product referred to, as purified palm DHSA is a white powdery solid with waxy sensation. The non-irritancy properly was conducted through in vitro derived skin irritection study.

[2] = in-vivo dermal irritection test
Source text: as §1

[3] = cited from earlier work

Q: For `CCCCCCCCC(O)C(O)CCCCCCCC(=O)O` (stereo not drawn) [purified DHSA, 9,10-dihydroxystearic acid], which irritancy ([1]; test not named at this place) is on record?
A: non-irritant

Q: For `CCCCCCCCC(O)C(O)CCCCCCCC(=O)O` (stereo not drawn) [purified palm DHSA, 9,10-dihydroxystearic acid], which dermal irritancy [2] is on record?
A: non irritant

Q: What about the dermal irritancy ([1]; in vitro dermal/skin irritection study) of the same molecule?
A: non irritant; also recorded: non-irritant

Q: For `CCCCCCCCC(O)C(O)CCCCCCCC(=O)O` (stereo not drawn) [9,10-dihydroxystearic acid], which solubility in ether ([3]; ether) is on record?
A: slightly soluble

Q: And the “solubility in hot alcohol or acetone” value ([3]; hot alcohol or acetone)?
A: soluble

Q: What about the solubility in water ([3]; water) of the same molecule?
A: insoluble
